Measurements as given in patent US7884115B2, “Methods and compositions for the treatment of pain and other neurological conditions” (Allergan, Inc., priority 2004, dated 2011).

Tests used:
[1] = tested on: allodynia induced by sulprostone; experiment: Mouse sulprostone model of allodynia; format: in vivo; conditions: for attenuation of the allodynic response (analgesic activity): up to 1 mg/kg, 15 min before sulprostone 300 ng/kg IP, FIG. 3
Protocol: In this alternative model of chronic pain, allodynia can be induced in mice through intraperitoneal treatment of the animals with 300 ng/kg sulprostone (prostaglandin E2 receptor agonist) in 50% DMSO and in a volume of 5 μl. In this model, the pain response to stroking the flank with a paint brush is scored 8 times over a 35 minute period starting 15 minutes following spinal administration of sulprostone. Minami et al., 57 Pain 217-223 (1994), hereby incorporated by reference herein. Sulprostone treatment alone elicits a score of 12-13 on a 16-point scale.
In either model, the compounds are formulated in d-H2O and given in a volume of 1 ml/kg body weight for intraperitoneal (IP) dosing.
Six mice per group are rendered allodynic by injection of one of the following agents: 300 ng/kg sulprostone in DMSO IP, 100 ng/kg phenylephrine (PE) in dH2O IP, or 100 ng NMDA in DMSO intrathecally (IT). Fifteen minutes before administration of the allodynia-inducing agents, the experimental mice are given 1 mg/kg NB-DNJ. Thirty (30) minutes following administration of NB-DNJ, the allodynic response is monitored as described by brushing the flank of each mouse with a paint brush.
Five to six mice per group are rendered allodynic by injection of 300 ng/kg sulprostone IP. Fifteen minutes before inducement of an allodynic response, experimental mice are given one of the following: 1 mg/kg, 300 μg/kg, and 100 μg/kg NB-DNJ; 1 mg/kg N-butyldeoxymannojirimycin; 1 mg/kg N-5-carboxy-1-deoxynojirimycin; 1 mg/kg N-dodecyldeoxynojirimycin; 1 mg/kg N-ethyl-1-deoxynojirimycin; 1 mg/kg, 300 μg/kg, and 30 μg/kg D-glucaro-delta-lactam; 1 mg/kg 4-O-a-D-glucopyranosylmoranoline; 1 mg/kg nojirimycin bisulfite; 1 mg/kg nojirimycin-1-sulfonic acid; 1 mg/kg N-(n-nonyl)deoxynojirimycin; 1 mg/kg N(7-oxadecyl)deoxynojirimycin; and 1 mg/kg N-(7-oxa-9,9,9-trifluorononyl)deoxynojirimycin. The DMSO vehicle and sulprostone alone are used as controls.
Starting thirty (30) minutes following administration of NB-DNJ, the allodynic response of each mouse was monitored by brushing the flank of the mouse with a paint brush.
Five to six mice per group are rendered allodynic by injection of one of the following: 300 ng/kg sulprostone IP, 100 ng/kg phenylephrine (PE) IP, or 100 ng NMDA intrathecally (IT). Fifteen minutes prior to the induction of allodynia, the mice are given D-glucaro-delta-lactam IP at […], or 1 mg/kg. PE or NMDA-treated mice are given 1 mg/kg D-glucaro-delta-lactam IP.

[2] = tested on: tactile allodynia in ligated Chung rats; experiment: Chung model (spinal nerve ligation, tactile allodynia, von Frey hairs); format: in vivo; conditions: Chung rat, 30 min after administration
From the text: One standard model for chronic pain involves the surgical ligation of the L5 (and optionally the L6) spinal nerves on one side in experimental animals. Rats recovering from the surgery gain weight and display a level of general activity similar to that of normal rats. However, these rats develop abnormalities of the foot, wherein the hindpaw is moderately everted and the toes are held together. More importantly, the hindpaw on the side affected by the surgery appears to become sensitive to pain from low-threshold mechanical stimuli, such as that producing a faint sensation of touch in a human, within about 1 week following surgery. […]
Tactile allodynia is measured prior to and 30 minutes after drug administration using von Frey hairs that are a series of fine hairs with incremental differences in stiffness. […] The applied force has been calculated to range from 0.41 to 15.1 grams. […] The 50% paw withdrawal threshold is determined using the method of Dixon, W. J., Ann. […] The post-drug threshold is compared to the pre-drug threshold and the percent reversal of tactile sensitivity is calculated based on a normal threshold of 15.1 grams.
Control rats are given the vehicle alone. Thirty (30) minutes following administration rats are brushed with Von Freys hairs and tactile allodynia is measured using the method of Dixon, as described above. […]

Row | SMILES | reversal of the allodynic response ([1]; 1 mg/kg given 15 min before sulprostone 300 ng/kg IP, FIG. 1) | attenuation of the allodynic response (analgesic activity) [1] | analgesic activity (allodynic reversal) ([2]; 1 mg/kg and 3 mg/kg intraperitoneally, FIG. 5) | reversal of induced allodynia (reduction in allodynic response to Von Freys hair stimulus) ([2]; 1 mg/kg intraperitoneally, FIG. 6)
1 | CCCCN1C[C@H](O)[C@@H](O)[C@H](O)[C@H]1CO [NB-DNJ, N-butyl-1-deoxy-nojirimycin] | significant reversal | attenuate the allodynic response | analgesic | –
2 | O=C(O)[C@H]1NC(=O)[C@H](O)[C@@H](O)[C@@H]1O [D-glucaro-delta-lactam] | – | attenuate the allodynic response | – | approximately 70%
